## C[n+]1ccccc1C1CCCCC1=O.[I-] (centres unmarked)
  melting point: 151 to 153 °C

## C[n+]1ccccc1CC(=O)c1cccc(Br)c1.[I-]
  melting point: 217 to 218 °C

## C[n+]1ccccc1CC(=O)c1ccccc1Br.[I-]
  melting point: 204 to 205 °C

## COc1ccc(C(=O)CC2CCCCN2C)cc1.I (centres unmarked)
  melting point: 201 to 203 °C

## CN1CCCCC1CC(=O)c1ccc(Br)cc1.I (centres unmarked)
  melting point: 182 to 184 °C

## CN1CCCCC1C1CCCCC1=O.I (centres unmarked)
  melting point: 160 to 162 °C

## CN1CCCCC1CC(=O)c1cccc(Br)c1.I (centres unmarked)
  melting point: 134 to 136 °C

## CN1CCCCC1CC(=O)c1ccccc1Br.I (centres unmarked)
  melting point: 163.5 to 164 °C

## C[n+]1ccccc1C=C(c1ccccc1)N1CCCC1.[I-]
  melting point: 200 to 202 °C

## C[n+]1c(C=C(c2ccccc2)N2CCOCC2)cccc1N1CCOCC1.[I-]
  melting point: 214 to 216 °C

## C[n+]1c(CC(=O)c2ccccc2)cccc1CC(=O)c1ccccc1.[I-]
  melting point: 197 to 199 °C

## COc1ccc(C(=O)Cc2cccc[n+]2C)cc1.F[P-](F)(F)(F)(F)F
  melting point: 168 to 170 °C

## Cc1ccc(C(=O)Cc2cccc(CC(=O)c3ccccc3)[n+]2C)cc1.[I-]
  melting point: 205 to 206 °C

## C[n+]1c(CC(=O)c2ccccc2)cccc1CC(=O)c1ccc(Cl)cc1.O=S(=O)([O-])C(F)(F)F
  melting point: 199 to 201 °C

## C[n+]1c(CC(=O)c2ccccc2)cccc1CC(=O)c1ccc(Cl)cc1.[I-]
  melting point: 213 to 215 °C

## C[n+]1c(CC(=O)c2ccccc2)cccc1CC(=O)c1ccc(F)cc1.[I-]
  melting point: 220 to 222 °C

## COc1ccc(C(=O)Cc2cccc[n+]2C)cc1.[I-]
  melting point: 214 to 216 °C

## C[n+]1c(CC(=O)c2ccccc2)cccc1CC(=O)c1ccc(Br)cc1.[I-]
  melting point: 218 to 220 °C

## C[n+]1c(CC(=O)c2ccc(Cl)cc2)cccc1CC(=O)c1ccc(Br)cc1.O=S(=O)([O-])C(F)(F)F
  melting point: 226 to 228 °C

## C[n+]1c(CC(=O)c2ccc(Cl)cc2)cccc1CC(=O)c1ccc(Br)cc1.[I-]
  melting point: 226 to 227 °C

## COc1ccc(C(=O)Cc2cccc(CC(=O)c3ccccc3)[n+]2C)cc1.O=S(=O)([O-])C(F)(F)F
  melting point: 193 to 195 °C

## COc1ccc(C(=O)Cc2cccc(CC(=O)c3ccccc3)[n+]2C)cc1.[I-]
  melting point: 203 to 205 °C

## COc1ccc(C(=O)Cc2cccc(CC(=O)c3ccc(F)cc3)[n+]2C)cc1.O=S(=O)([O-])C(F)(F)F
  melting point: 208 to 210 °C

## COc1ccc(C(=O)Cc2cccc(CC(=O)c3ccc(F)cc3)[n+]2C)cc1.[I-]
  melting point: 219 to 220 °C

## C[n+]1ccccc1CC(=O)c1ccc(Cl)cc1.F[P-](F)(F)(F)(F)F
  melting point: 152 to 154 °C

## Cc1ccc(C(=O)CC2CCCC(CC(=O)c3ccccc3)N2C)cc1.I (centres unmarked)
  melting point: 192 to 193 °C

## CN1C(CC(=O)c2ccccc2)CCCC1CC(=O)c1ccc(Cl)cc1.I (centres unmarked)
  melting point: 152 to 154 °C

## CN1C(CC(=O)c2ccccc2)CCCC1CC(=O)c1ccc(F)cc1.I (centres unmarked)
  melting point: 152 to 154 °C

## CN1C(CC(=O)c2ccc(Cl)cc2)CCCC1CC(=O)c1ccc(Br)cc1.I (centres unmarked)
  melting point: 200 to 202 °C

## C[n+]1ccccc1CC(=O)c1ccc(Cl)cc1.[I-]
  melting point: 212 to 214 °C

## C[n+]1ccccc1CC(=O)c1ccc(Br)cc1.F[P-](F)(F)(F)(F)F
  melting point: 185 to 187 °C

## C[n+]1ccccc1CC(=O)c1ccc(Br)cc1.[I-]
  melting point: 222 to 224 °C

From patent publication US6734196B2, “Substituted pyridine or piperidine compounds” (Les Laboratoires Servier, priority 1999, dated 2004)
